Results on 2 compounds are retold here after ChEMBL document CHEMBL1132713, “Emerging molecular approaches to pain therapy” (J Med Chem, 1999).

In test [1] the target is Delta-type opioid receptor (Homo sapiens, UniProt P41143). As to the kind of experiment: Opioid receptor delta 1 agonist activity was determined. It counts as functional.
Another test addresses Proteasome. As to the kind of experiment: Inhibitory activity against 26S proteasome degradation of IkB. It counts as subcellular.

Chain of Delta-type opioid receptor (P41143 whole entry): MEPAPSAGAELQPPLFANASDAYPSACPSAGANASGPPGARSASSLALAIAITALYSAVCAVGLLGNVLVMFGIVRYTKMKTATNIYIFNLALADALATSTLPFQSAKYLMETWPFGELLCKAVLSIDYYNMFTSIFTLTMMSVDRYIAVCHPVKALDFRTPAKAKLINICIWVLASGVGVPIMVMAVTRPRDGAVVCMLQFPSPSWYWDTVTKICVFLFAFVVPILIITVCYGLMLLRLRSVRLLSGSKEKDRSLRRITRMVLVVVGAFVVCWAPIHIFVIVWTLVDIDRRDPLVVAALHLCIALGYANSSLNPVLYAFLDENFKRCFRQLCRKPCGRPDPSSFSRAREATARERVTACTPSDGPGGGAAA

As a reminder, the Ki is a measure of affinity in units of concentration, obtained from inhibition or displacement. As to `COc1ccc2c3c1OC1C4NC(C(=O)OCC(C)C)=C(C)C4CC4C(C2)N(C)CCC341` (configuration not stated), affinity in test [1] was put at a Ki of 4.8 nM.
For `CC(C)C[C@H](NC(=O)[C@@H](Cc1ccccc1)NC(=O)c1ccccc1)B(O)O`, the Ki on Proteasome came to 0.6 nM.
